{"source": "ChEMBL document CHEMBL1137641", "about": "“Influence of inoculum size on the selection of resistant mutants of Escherichia coli in relation to mutant prevention concentrations of marbofloxacin” (2007)", "format_in_all_cases": "functional", "key": {"[1]": {"experiment": "T>MIC in Escherichia coli ATCC 25922 at time with in mutant selection window of 100%"}, "[2]": {"tested_on": "Escherichia coli", "experiment": "Bactericidal activity against marbofloxacin-susceptible Escherichia coli ATCC 25922 assessed as final bacterial count using inoculum size of 10^5 CFU/mL inside the mutant selection window for 25% of time"}, "[3]": {"tested_on": "Escherichia coli", "experiment": "Bactericidal activity against marbofloxacin-susceptible Escherichia coli ATCC 25922 assessed as final bacterial count using inoculum size of 10^9CFU/mL inside the mutant selection window for 0% of time"}, "[4]": {"tested_on": "Escherichia coli", "experiment": "Bactericidal activity against marbofloxacin-susceptible Escherichia coli ATCC 25922 assessed as area between the control curve and time kill curve using inoculum size of 10^7 CFU/mL inside the mutant selection window for 100% of time"}, "[5]": {"experiment": "T>MIC in Escherichia coli ATCC 25922 at time with in mutant selection window of 0%"}, "[6]": {"tested_on": "Escherichia coli", "experiment": "Bactericidal activity against marbofloxacin-susceptible Escherichia coli ATCC 25922 assessed as area between the control curve and time kill curve using inoculum size of 10^7 CFU/mL inside the mutant selection window for 25% of time"}, "[7]": {"experiment": "Effect on Escherichia coli ATCC 25922 assessed as time at which drug concentration above the mutant prevention concentration at time with in mutant selection window of 100%"}, "[8]": {"experiment": "Effect on Escherichia coli ATCC 25922 assessed as time at which drug concentration above the mutant prevention concentration at time with in mutant selection window of 0%"}, "[9]": {"tested_on": "Escherichia coli", "experiment": "Bactericidal activity against marbofloxacin-susceptible Escherichia coli ATCC 25922 assessed as area between the control curve and time kill curve using inoculum size of 10^5 CFU/mL inside the mutant selection window for 25% of time"}, "[10]": {"tested_on": "Escherichia coli", "experiment": "Antibacterial activity against Escherichia coli ATCC 25922 by microdilution method"}, "[11]": {"tested_on": "Escherichia coli", "experiment": "Antibacterial activity against Escherichia coli ATCC 25922 assessed as mutant prevention concentration after 24 hrs by agar dilution method"}, "[12]": {"tested_on": "Escherichia coli", "experiment": "Bactericidal activity against marbofloxacin-susceptible Escherichia coli ATCC 25922 assessed as area between the control curve and time kill curve using inoculum size of 10^5 CFU/mL inside the mutant selection window for 100% of time"}, "[13]": {"tested_on": "Escherichia coli", "experiment": "Bactericidal activity against marbofloxacin-susceptible Escherichia coli ATCC 25922 assessed as final bacterial count using inoculum size of 10^9CFU/mL inside the mutant selection window for 25% of time"}, "[14]": {"experiment": "Effect on Escherichia coli ATCC 25922 assessed as time at which drug concentration above the mutant prevention concentration at time with in mutant selection window of 25%"}, "[15]": {"tested_on": "Escherichia coli", "experiment": "Bactericidal activity against marbofloxacin-resistant Escherichia coli ATCC 25922 assessed as area between the control curve and time kill curve using inoculum size of 10^5 CFU/mL inside the mutant selection window for 100% of time"}, "[16]": {"tested_on": "Escherichia coli", "experiment": "Bactericidal activity against marbofloxacin-susceptible Escherichia coli ATCC 25922 assessed as area between the control curve and time kill curve using inoculum size of 10^9 CFU/mL inside the mutant selection window for 0% of time"}, "[17]": {"tested_on": "Escherichia coli", "experiment": "Bactericidal activity against marbofloxacin-resistant Escherichia coli ATCC 25922 assessed as final bacterial count using inoculum size of 10^9 CFU/mL inside the mutant selection window for 100% of time"}, "[18]": {"tested_on": "Escherichia coli", "experiment": "Bactericidal activity against marbofloxacin-resistant Escherichia coli ATCC 25922 assessed as final bacterial count using inoculum size of 10^5 CFU/mL inside the mutant selection window for 100% of time"}, "[19]": {"tested_on": "Escherichia coli", "experiment": "Bactericidal activity against marbofloxacin-susceptible Escherichia coli ATCC 25922 assessed as final bacterial count using inoculum size of 10^7 CFU/mL inside the mutant selection window for 0% of time"}, "[20]": {"tested_on": "Escherichia coli", "experiment": "Bactericidal activity against marbofloxacin-resistant Escherichia coli ATCC 25922 assessed as area between the control curve and time kill curve using inoculum size of 10^7 CFU/mL inside the mutant selection window for 100% of time"}, "[21]": {"tested_on": "Escherichia coli", "experiment": "Bactericidal activity against marbofloxacin-susceptible Escherichia coli ATCC 25922 assessed as area between the control curve and time kill curve using inoculum size of 10^7 CFU/mL inside the mutant selection window for 0% of time"}, "[22]": {"tested_on": "Escherichia coli", "experiment": "Bactericidal activity against marbofloxacin-susceptible Escherichia coli ATCC 25922 assessed as final bacterial count using inoculum size of 10^5 CFU/mL inside the mutant selection window for 0% of time"}, "[23]": {"tested_on": "Escherichia coli", "experiment": "Bactericidal activity against marbofloxacin-resistant Escherichia coli ATCC 25922 assessed as final bacterial count using inoculum size of 10^7 CFU/mL inside the mutant selection window for 100% of time"}, "[24]": {"tested_on": "Escherichia coli", "experiment": "Bactericidal activity against marbofloxacin-susceptible Escherichia coli ATCC 25922 assessed as final bacterial count using inoculum size of 10^5 CFU/mL inside the mutant selection window for 100% of time"}, "[25]": {"tested_on": "Escherichia coli", "experiment": "Bactericidal activity against marbofloxacin-susceptible Escherichia coli ATCC 25922 assessed as area between the control curve and time kill curve using inoculum size of 10^9 CFU/mL inside the mutant selection window for 25% of time"}, "[26]": {"tested_on": "Escherichia coli", "experiment": "Bactericidal activity against marbofloxacin-susceptible Escherichia coli ATCC 25922 assessed as final bacterial count using inoculum size of 10^7 CFU/mL inside the mutant selection window for 25% of time"}, "[27]": {"experiment": "T>MIC in Escherichia coli ATCC 25922 at time with in mutant selection window of 25%"}, "[28]": {"tested_on": "Escherichia coli", "experiment": "Bactericidal activity against marbofloxacin-susceptible Escherichia coli ATCC 25922 assessed as final bacterial count using inoculum size of 10^7 CFU/mL inside the mutant selection window for 100% of time"}, "[29]": {"tested_on": "Escherichia coli", "experiment": "Bactericidal activity against marbofloxacin-susceptible Escherichia coli ATCC 25922 assessed as area between the control curve and time kill curve using inoculum size of 10^5 CFU/mL inside the mutant selection window for 0% of time"}, "[30]": {"tested_on": "Escherichia coli", "experiment": "Bactericidal activity against marbofloxacin-resistant Escherichia coli ATCC 25922 assessed as area between the control curve and time kill curve using inoculum size of 10^9 CFU/mL inside the mutant selection window for 100% of time"}}}
{"smiles": "CN1CCN(c2c(F)cc3c(=O)c(C(=O)O)cn4c3c2OCN4C)CC1", "note": "[MARBOFLOXACIN]", "values": [{"measurement": "T>MIC", "setting": "[1]", "result": 100, "unit": "%"}, {"measurement": "CFU", "setting": "[2]", "result": 6, "unit": "×10⁴ /ml"}, {"measurement": "CFU", "setting": "[3]", "result": 1, "unit": "×10⁴ /ml"}, {"measurement": "ABBC", "setting": "[4]", "result": 60, "unit": "log10CFU/ml/hr"}, {"measurement": "T>MIC", "setting": "[5]", "result": 100, "unit": "%"}, {"measurement": "ABBC", "setting": "[6]", "result": 56, "unit": "log10CFU/ml/hr"}, {"measurement": "Activity", "setting": "[7]", "result": 0, "unit": "%"}, {"measurement": "Activity", "setting": "[8]", "result": 100, "unit": "%"}, {"measurement": "ABBC", "setting": "[9]", "result": 54, "unit": "log10CFU/ml/hr"}, {"measurement": "MIC", "setting": "[10]", "result": 8, "unit": "ng/mL"}, {"measurement": "Activity", "setting": "[11]", "result": 0.256, "unit": "µg/mL"}, {"measurement": "ABBC", "setting": "[12]", "result": 53, "unit": "log10CFU/ml/hr"}, {"measurement": "CFU", "setting": "[13]", "result": 3, "unit": "×10⁴ /ml"}, {"measurement": "Activity", "setting": "[14]", "result": 75, "unit": "%"}, {"measurement": "ABBC", "setting": "[15]", "result": 51, "unit": "log10CFU/ml/hr"}, {"measurement": "ABBC", "setting": "[16]", "result": 51, "unit": "log10CFU/ml/hr"}, {"measurement": "CFU", "setting": "[17]", "result": 5, "unit": "×10⁷ /ml"}, {"measurement": "CFU", "setting": "[18]", "result": 1, "unit": "×10⁸ /ml"}, {"measurement": "CFU", "setting": "[19]", "result": 2, "unit": "×10⁴ /ml"}, {"measurement": "ABBC", "setting": "[20]", "result": 56, "unit": "log10CFU/ml/hr"}, {"measurement": "ABBC", "setting": "[21]", "result": 57, "unit": "log10CFU/ml/hr"}, {"measurement": "CFU", "setting": "[22]", "result": 7, "unit": "×10³ /ml"}, {"measurement": "CFU", "setting": "[23]", "result": 6, "unit": "×10⁸ /ml"}, {"measurement": "CFU", "setting": "[24]", "result": 2, "unit": "×10⁶ /ml"}, {"measurement": "ABBC", "setting": "[25]", "result": 53, "unit": "log10CFU/ml/hr"}, {"measurement": "CFU", "setting": "[26]", "result": 8, "unit": "×10⁴ /ml"}, {"measurement": "T>MIC", "setting": "[27]", "result": 100, "unit": "%"}, {"measurement": "CFU", "setting": "[28]", "result": 7, "unit": "×10⁴ /ml"}, {"measurement": "ABBC", "setting": "[29]", "result": 54, "unit": "log10CFU/ml/hr"}, {"measurement": "ABBC", "setting": "[30]", "result": 44, "unit": "log10CFU/ml/hr"}]}
